From US6861395B2, “Method and compositions for inhibiting the growth of microorganisms in metal working fluids” (Arch UK Biocides Limited, priority 2000, dated 2005)

Assays:
[1] = test system: Yeast and Fungi (Fusarium solani, Penicillium sp., Acremonium strictum, Geotrichum candidum); experiment: Microbial resistance test based on ASTM E686-91, fungal contamination in semi synthetic metal working fluid; type: cell-based; conditions: for Fungal Contamination after (days) 10: 10 days; for Fungal Contamination after (days) 31: 31 days; for Fungal Contamination after (days) 87: 87 days; for Fungal Contamination after (days) 110: 110 days; as to all read-outs here: key: +++ indicates confluent growth; ++ indicates moderate growth; + indicates slight growth; − indicates no growth
Method: (§1) The following microbial strains were studied:
(§2) The biocides shown in Tables 4, 5 and 6 were added to the metal working fluid shown in each table and assessed for microbial resistance by a method based on ASTM E686-91: Standard Test Method for Evaluation of Antimicrobial Agents in Aqueous Metal Working Fluids as described below.
(§3) The metal working fluids used in the assessment were the same as those used in Examples 1 to 7.
(§4) Bacteria and fungi were gradually acclimatised to the metal working fluid. The organisms were grown up in biocide free metal working fluid (containing 50% (v/v) minimal broth) with aeration at 25° C. until microbial count reached 10^9 cfu/ml. Every 7 days each micro-organism was subcultured into 90 ml (10 ml inoculum) and re-incubated. Subculturing was done for a minimum of three cycles before use.
(§5) To 1I French square bottles, 900 ml of metal working fluid was added at use concentration (diluted to 5% with water of 125 ppm calcium hardness). 100 ml of inoculum was added and mixed (100 ml of total quantity was removed and discarded). The metal working fluid was allowed to sit undisturbed for 64 hours. The metal working fluid was mixed and sampled for microbiological testing.
(§6) Bacteria and fungi were enumerated by streaking an aliquot onto nutrient or malt agar as appropriate. The mixtures were aerated using capillary tubing to bubble air into the bottom of the bottle (introduced by means of a multi-valve air manifold). Antifoam was also added. After 5 days, the aeration was stopped and volume replaced with sterile distilled water. The mixture was allowed to sit for 64 hours and then mixed. 10 ml of inoculum was used to re-inoculate and all losses were replaced with Biocide containing metal working fluid. The pH of the metal working fluid was measured at start of test and every 7 days. […] Aeration was resumed and the regime repeated for a minimum of 6 weeks or until failure.

[2] = test system: Fusarium solani (ATCC 58877/IMI 314228); experiment: MIC by doubling dilution in microtitre plate; type: cell-based
Method: The fungus Fusarium solani (ATCC 58877/IMI 314228) was grown in malt agar for 7-14 days at 25° C. to give a mycelial mat and the spores harvested from the surface using physiological saline to give a suspension containing about 10^6 fungal spores/ml. This was then diluted with malt broth to give a spore suspension containing 10^4 spores/ml. A 100 μl aliquot of this spore suspension was added to each well of a microtitre plate except for the first well which contained 180 μl.
A 20 μl aliquot of this solution was added to the first well of the microtitre plate and thoroughly mixed. 100 μl was withdrawn from the first well, added to the second well and mixed.

[3] = test system: Yeast and Fungi (Fusarium solani, Penicillium sp., Acremonium strictum, Geotrichum candidum); experiment: Microbial resistance test based on ASTM E686-91, fungal contamination in synthetic metal working fluid; type: cell-based; conditions: for Fungal Contamination after (days) 10: 10 days; for Fungal Contamination after (days) 31: 31 days; for Fungal Contamination after (days) 87: 87 days; for Fungal Contamination after (days) 110: 110 days; as to all read-outs here: key: +++ indicates confluent growth; ++ indicates moderate growth; + indicates slight growth; − indicates no growth
Method: as §1, §2, §3, §4, §5, §6

[4] = Temperature stability of biocide in semi-synthetic metal working fluid (storage at 50° C., HPLC); conditions: Semi-synthetic metal working fluid Quaker fluid No. 12717
Method: The biocides shown in Table 1 were added to Trim C111A (ex. Master Chemical Corporation, USA, a synthetic water miscible cutting and grinding fluid used as coolant and lubricant in metal removal processes). The initial concentration of the biocide in the metal working fluid is shown in the third column of Table 1. The metal working fluid was then stored at 50° C. for 45 days.
The concentration of biocide remaining after storage was measured using reverse phase high performance liquid chromatography (HPLC) after initial sample preparation. In the case of 2-n-butyl-benzisothiazolin-3-one, 2-n-octyl-isothiazolin-3-one and 3-iodo-2-propynyl-N-butylcarbamate sample preparation involved solvent extraction of the active from the metal working fluid. For sodium pyrithione, initial sample preparation was derivatisation to produce a compound readily detectable by HPLC.
The stability of the biocides shown in Tables 2 and 3 in semi-synthetic and soluble oil metal working fluids was assessed using the same method described above in Example 1.

[5] = Temperature stability of biocide in soluble oil metal working fluid (storage at 50° C., HPLC)
[6] = Temperature stability of biocide in synthetic metal working fluid (storage at 50° C., HPLC); type: physicochemical; conditions: Synthetic metal working fluid Trim C111A
Method: The biocides shown in Table 1 were added to Trim C111A (ex. Master Chemical Corporation, USA, a synthetic water miscible cutting and grinding fluid used as coolant and lubricant in metal removal processes). […] The metal working fluid was then stored at 50° C. for 45 days.

Compound: CCCCn1sc2ccccc2c1=O [BBIT, 2-n-butyl-1,2-benzisothiazolin-3-one]
- Fungal Contamination after (days) 10 ([1]; 75 ppm): −
- Fungal Contamination after (days) 31 ([1]; 75 ppm): −
- Fungal Contamination after (days) 87 ([1]; 75 ppm): +
- Fungal Contamination after (days) 110 ([1]; 75 ppm): +
- Fungal Contamination after (days) 10 ([1]; 100 ppm): −
- Fungal Contamination after (days) 31 ([1]; 100 ppm): −
- Fungal Contamination after (days) 87 ([1]; 100 ppm): −
- Fungal Contamination after (days) 110 ([1]; 100 ppm): −
- Fungal Contamination after (days) 10 ([1]; 150 ppm): −
- Fungal Contamination after (days) 31 ([1]; 150 ppm): −
- Fungal Contamination after (days) 87 ([1]; 150 ppm): −
- Fungal Contamination after (days) 110 ([1]; 150 ppm): −
- MIC values ([2]; malt broth, visual inspection after 5 days at 25° C.): 6.4 ppm
- Fungal Contamination after (days) 10 ([3]; Conc. (a.i.) 75 ppm): −
- Fungal Contamination after (days) 31 ([3]; Conc. (a.i.) 75 ppm): −
- Fungal Contamination after (days) 87 ([3]; Conc. (a.i.) 75 ppm): −
- Fungal Contamination after (days) 110 ([3]; Conc. (a.i.) 75 ppm): −
- Fungal Contamination after (days) 10 ([3]; Conc. (a.i.) 100 ppm): −
- Fungal Contamination after (days) 31 ([3]; Conc. (a.i.) 100 ppm): −
- Fungal Contamination after (days) 87 ([3]; Conc. (a.i.) 100 ppm): −
- Fungal Contamination after (days) 110 ([3]; Conc. (a.i.) 100 ppm): −
- Fungal Contamination after (days) 10 ([3]; Conc. (a.i.) 150 ppm): −
- Fungal Contamination after (days) 31 ([3]; Conc. (a.i.) 150 ppm): −
- Fungal Contamination after (days) 87 ([3]; Conc. (a.i.) 150 ppm): −
- Fungal Contamination after (days) 110 ([3]; Conc. (a.i.) 150 ppm): −

Compound: CCCCNC(=O)OCC#CI [IPBC, 3-iodo-2-propynyl-N-n-butyl carbamate, reference compound]
- % Remaining after storage at 50° C. for 45 days ([4]; initial concentration 5000 ppm): 0%
- Fungal Contamination after (days) 10 ([1]; 75 ppm): −
- Fungal Contamination after (days) 31 ([1]; 75 ppm): −
- Fungal Contamination after (days) 87 ([1]; 75 ppm): −
- Fungal Contamination after (days) 110 ([1]; 75 ppm): −
- Fungal Contamination after (days) 10 ([3]; Conc. (a.i.) 75 ppm): −
- Fungal Contamination after (days) 31 ([3]; Conc. (a.i.) 75 ppm): −
- Fungal Contamination after (days) 87 ([3]; Conc. (a.i.) 75 ppm): −
- Fungal Contamination after (days) 110 ([3]; Conc. (a.i.) 75 ppm): −
- % Remaining after storage at 50° C. for 45 days ([5]; initial concentration 5000 ppm): 13%

Compound: CCCCCCCCn1sccc1=O [OIT, 2-n-octyl-isothiazolin-3-one]
- % Remaining after storage at 50° C. for 45 days ([6]; initial concentration 2000 ppm): 0%
- % Remaining after storage at 50° C. for 45 days ([4]; initial concentration 2000 ppm): 0%

Compound: [Na].[O-][n+]1ccccc1S [Sodium Omadine, sodium pyridine-2-thiol-1-oxide, reference compound]
- % Remaining after storage at 50° C. for 45 days ([6]; initial concentration 2500 ppm): 0%
- % Remaining after storage at 50° C. for 45 days ([4]; initial concentration 2500 ppm): 0%
- Fungal Contamination after (days) 10 ([1]; 150 ppm): −
- Fungal Contamination after (days) 31 ([1]; 150 ppm): −
- Fungal Contamination after (days) 87 ([1]; 150 ppm): +
- Fungal Contamination after (days) 110 ([1]; 150 ppm): +
- MIC ([2]; ATCC58877, 120 h, read-out: MIC values): 18.5 µg/mL
- Fungal Contamination after (days) 10 ([3]; Conc. (a.i.) 150 ppm): ++
- Fungal Contamination after (days) 31 ([3]; Conc. (a.i.) 150 ppm): +++
- Fungal Contamination after (days) 87 ([3]; Conc. (a.i.) 150 ppm): +++
- Fungal Contamination after (days) 110 ([3]; Conc. (a.i.) 150 ppm): +++
- % Remaining after storage at 50° C. for 45 days ([5]; initial concentration 2500 ppm): 0%
